The assay concerns the target Acetylcholinesterase (Homo sapiens, UniProt P22303). The assay is described as follows: Inhibition of Acetylcholinesterase (AChE) from human RBC.

Acetylcholinesterase, sequence (P22303 whole entry): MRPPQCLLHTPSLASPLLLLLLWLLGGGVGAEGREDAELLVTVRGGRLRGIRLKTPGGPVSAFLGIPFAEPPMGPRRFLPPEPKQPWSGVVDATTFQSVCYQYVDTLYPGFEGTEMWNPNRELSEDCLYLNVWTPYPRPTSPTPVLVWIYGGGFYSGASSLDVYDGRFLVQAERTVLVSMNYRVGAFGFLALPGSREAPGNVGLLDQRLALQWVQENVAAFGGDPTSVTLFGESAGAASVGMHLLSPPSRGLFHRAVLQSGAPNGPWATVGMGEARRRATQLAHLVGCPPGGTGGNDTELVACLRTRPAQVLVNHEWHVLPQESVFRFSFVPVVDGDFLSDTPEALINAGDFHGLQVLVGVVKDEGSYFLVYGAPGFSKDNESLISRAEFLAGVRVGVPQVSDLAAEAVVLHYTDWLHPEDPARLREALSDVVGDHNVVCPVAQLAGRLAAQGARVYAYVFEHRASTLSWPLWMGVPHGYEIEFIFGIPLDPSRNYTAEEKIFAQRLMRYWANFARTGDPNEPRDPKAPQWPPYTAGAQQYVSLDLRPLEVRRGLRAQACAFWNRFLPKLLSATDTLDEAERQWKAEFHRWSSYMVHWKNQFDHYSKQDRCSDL

Broadly, the IC50 is the midpoint of a concentration-inhibition curve. A low value points to greater potency in that assay. `CN1CC[C@@]2(C)c3cc(OC(=O)NCCCCN4CCOCC4)ccc3N(C)[C@@H]12` came in with an IC50 of 21 µM. As for `CN1CC[C@@]2(C)c3cc(OC(=O)NCCCCCCCCN4CCOCC4)ccc3N(C)[C@@H]12`, the figure is 0.08 µM.

Source of the values: ChEMBL document CHEMBL1128816, “Synthesis and structure-activity relationships of new acetylcholinesterase inhibitors: Morpholinoalkylcarbamoyloxyeseroline derivatives” (Bioorg Med Chem Lett, 1995).
